The values below come from patent publication US7989495B2, “Compositions and methods for inhibiting NF-κB mediated tumorigenicity and adhesion dependent survival of cancer cells” (University of Utah Research Foundation, priority 2002, dated 2011).

The test system of the experiment is NF-κB (p65) binding to NF-κB consensus oligonucleotides. In words: NF-κB binding activity assay (Trans-AM) on lysates of treated HT-29 cells. The experiment is classed as cell-based. The method, then: The transiently suspended cells were lysed and allowed to bind to DNA oligonucleotides, containing the NF-κB consensus binding site, that were immobilized to 96-well plates. NF-κB protein bound to the oligonucleotides was detected by an antibody to the p65 subunit that only recognized p65 that is bound to DNA. The positive control was HeLa cells that were stimulated with TNFα A control was performed using excess free NF-κB oligonucleotides (Competitor). […] NF-κB binding activity was determined by the TransAM assay as in FIG. 5A. […] The data shown represent typical results of three separate experiments. […] An immunoblot for COX-2 was performed.
Activation of NF-κB was also determined using the Trans-AM™ assay (Active Motif, Carlsbad, Calif.) per the manufacturer's instructions. (Renard et al., 2001) Briefly, cell monolayers on 60 mm dishes were washed with ice-cold PBS and removed by incubating in trypsin-PBS or scraping. The cells were centrifuged for 10 minutes at 1,000 rpm at 4° C. and resuspended for 10 minutes in 100 μl of 4° C. lysis buffer (20 mM HEPES (pH 7.5), 350 mM NaCl, 20% glycerol, 1% Igepal-CA630, 1 mM MgCl2, 0.5 mM EDTA, 0.1 mM EGTA, 1 μl of 1 M dithiothreitol and 10 μl of protease inhibitor cocktail (proprietary) per ml of lysis buffer). The lysates were centrifuged for 20 minutes at 14,000 g at 4° C. Lysates containing 5 μg of total protein were added to 20 μl of lysis buffer per well in 96-well dishes containing immobilized oligonucleotides corresponding to the NF-κB consensus DNA binding site (5′-GGGACTTTCC-3′) (SEQ ID NO:2). The plate was covered with an adhesive film and incubated for 1 hour at room temperature on a rocker. The wells were then washed three times with 200 μl per well of washing buffer (100 mM phosphate buffer (pH 7.5), 500 mM NaCl, 1% Tween). 100 μl of p65subunit monoclonal antibody (the p65 antibody supplied with the kit only recognizes p65-containing NF-κB heterodimers that are bound to DNA containing the NF-κB consensus binding sequence) was diluted 1:1,000 in 1× antibody binding buffer (4 mM HEPES (pH 7.5), 120 mM KCl, 8% glycerol, 1% bovine serum albumin) and added to each well and incubated for 1 hour at room temperature. The wells were washed with 100 μl of washing buffer three times. 100 μl of horseradish peroxidase-conjugated secondary antibody diluted 1:1,000 in 1× antibody binding buffer was added to each well and incubated for 1 hour at room temperature without agitation. […] 100 μl of stop solution (0.5 M H2SO4) was added to each well after which the absorbance was determined on a plate spectrophotometer at 450 nm. Specificity of binding was determined using 200-fold excess wildtype NF-κB oligonucleotides added at the time the cell lysates were added to the wells. […]

Molecules are shown by their SMILES.

Regarding `CC(C)(C)c1ccc(S(=O)(=O)/C=C/C#N)cc1` [BAY 11-7085, (2E)-3-[4-(tertiarybutylphenyl)sulfonyl]-2-propenenitrile], the “constitutive NF-κB activation in adherent cells” value (adherent HT-29, increasing concentrations, 8 hours) is “relatively unaffected”. The “inhibition of constitutive NF-κB activation in adherent cells” value (adherent colon cancer cells, doses up to 50 μM) is reported as “could not be inhibited”. Further, under “transiently suspended HT-29, increasing concentrations, 8 hours”, the “inhibition of NF-κB activation caused by readhesion” value is reported as “dose-related inhibition of this NF-κB activation”. Where the note is “transiently suspended colon cancer cells, as little as 10 μM”, the “inhibition of NF-κB activation induced by readhesion” value was “almost totally inhibited”.
